Laboratory results: PubChem BioAssay AID248 (DTP/NCI, 2004)
Where “and” joins values, the source holds several entries; their conditions need not be identical. Identical values can stand only once. Inconclusive results and toxic doses are left out.

System: L1210 leukemia ip in BDF1 mice, survival T/C
Test: NCI In Vivo Anticancer Drug Screen. Data for tumor model L1210 Leukemia (intraperitoneal) in B6D2F1 (BDF1) mice
Conditions: endpoint: mean survival time, higher = longer survival
Summary of the method: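 Transplantable tumor model; survival measured in treated vs vehicle control mice. Value = treated/control.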

[1] = dose: 100.0 mg/kg/injection, schedule: Q04DX002 (ip), vehicle: Klucel (hydroxypropylcellulose) (HPC)
[2] = dose: 200.0 mg/kg/injection, schedule: Q04DX002 (ip), vehicle: Klucel (hydroxypropylcellulose) (HPC)
[3] = dose: 400.0 mg/kg/injection, schedule: Q04DX002 (ip), vehicle: Klucel (hydroxypropylcellulose) (HPC)
[4] = dose: 100.0 mg/kg/injection, schedule: Q01DX001 (ip), vehicle: saline
[5] = dose: 200.0 mg/kg/injection, schedule: Q01DX001 (ip), vehicle: saline
[6] = dose: 100.0 mg/kg/injection, schedule: Q04DX003 (ip), vehicle: Klucel (hydroxypropylcellulose) (HPC)
[7] = dose: 200.0 mg/kg/injection, schedule: Q04DX003 (ip), vehicle: Klucel (hydroxypropylcellulose) (HPC)
[8] = dose: 400.0 mg/kg/injection, schedule: Q04DX003 (ip), vehicle: Klucel (hydroxypropylcellulose) (HPC)
[9] = dose: 12.5 mg/kg/injection, schedule: Q01DX009 (ip), vehicle: saline
[10] = dose: 25.0 mg/kg/injection, schedule: Q01DX009 (ip), vehicle: saline
[11] = dose: 100.0 mg/kg/injection, schedule: Q04DX003 (ip), vehicle: saline with Tween-80
[12] = dose: 200.0 mg/kg/injection, schedule: Q04DX003 (ip), vehicle: saline with Tween-80
[13] = dose: 100.0 mg/kg/injection, schedule: Q01DX001 (ip), vehicle: carboxymethylcellulose (CMC)
[14] = dose: 200.0 mg/kg/injection, schedule: Q01DX001 (ip), vehicle: carboxymethylcellulose (CMC)
[15] = dose: 400.0 mg/kg/injection, schedule: Q01DX001 (ip), vehicle: carboxymethylcellulose (CMC)
[16] = dose: 400.0 mg/kg/injection, schedule: Q01DX001 (ip), vehicle: saline
[17] = dose: 100.0 mg/kg/injection, schedule: Q01DX009 (ip), vehicle: saline
[18] = dose: 100.0 mg/kg/injection, schedule: Q04DX003 (ip), vehicle: saline
[19] = dose: 200.0 mg/kg/injection, schedule: Q01DX009 (ip), vehicle: saline
[20] = dose: 200.0 mg/kg/injection, schedule: Q04DX003 (ip), vehicle: saline
[21] = dose: 400.0 mg/kg/injection, schedule: Q01DX009 (ip), vehicle: saline
[22] = dose: 400.0 mg/kg/injection, schedule: Q04DX003 (ip), vehicle: saline
[23] = dose: 100.0 mg/kg/injection, schedule: Q01DX001 (ip), vehicle: Klucel (hydroxypropylcellulose) (HPC)
[24] = dose: 200.0 mg/kg/injection, schedule: Q01DX001 (ip), vehicle: Klucel (hydroxypropylcellulose) (HPC)
[25] = dose: 400.0 mg/kg/injection, schedule: Q01DX001 (ip), vehicle: Klucel (hydroxypropylcellulose) (HPC)

Nc1ccccc1SC(CC(=O)c1ccccc1)c1ccc(Cl)cc1 (centres undefined)
T/C (dose: 100.0 mg/kg/injection, schedule: Q01DX005 (ip), vehicle: Klucel (hydroxypropylcellulose) (HPC)): 91 % of control | T/C [1]: 89 % of control | T/C (dose: 200.0 mg/kg/injection, schedule: Q01DX005 (ip), vehicle: Klucel (hydroxypropylcellulose) (HPC)): 97 % of control | T/C [2]: 95 % of control | T/C (dose: 400.0 mg/kg/injection, schedule: Q01DX005 (ip), vehicle: Klucel (hydroxypropylcellulose) (HPC)): 97 % of control | T/C [3]: 100 % of control

O=C(OCc1ccccc1CN1CCOCC1)c1cccc(Cl)c1
T/C [1]: 92 % of control | T/C [2]: 92 % of control | T/C [3]: 95 % of control

ON(C(=Nc1cccc2ccccc12)c1ccccc1)c1ccccc1
T/C (dose: 75.0 mg/kg/injection, schedule: Q01DX001 (ip), vehicle: carboxymethylcellulose (CMC)): 97 % of control | T/C (dose: 150.0 mg/kg/injection, schedule: Q01DX001 (ip), vehicle: carboxymethylcellulose (CMC)): 92 % of control | T/C (dose: 300.0 mg/kg/injection, schedule: Q01DX001 (ip), vehicle: carboxymethylcellulose (CMC)): 98 % of control

NC(=O)C1C(=O)OC2(CC2)C1c1ccccc1 (centres undefined)
T/C [4]: 86 % of control | T/C [5]: 93 % of control

Nc1ncccn1
T/C [6]: 101 % of control | T/C [7]: 93 % of control | T/C [8]: 101 % of control

CC1=C(/C=C\C(C)=N\NC(=O)c2ccc[n+](C)c2)C(C)(C)CCC1
T/C [9]: 98 % of control | T/C [10]: 88 % of control | T/C (dose: 50.0 mg/kg/injection, schedule: Q01DX009 (ip), vehicle: saline): 104 % of control and 88 % of control

O=CC1=C(Cl)c2ccccc2CC1
T/C (dose: 12.5 mg/kg/injection, schedule: Q04DX003 (ip), vehicle: acetone): 98 % of control

O=C(O)/C=C\c1cccc([N+](=O)[O-])c1
T/C [11]: 92 % of control | T/C [12]: 93 % of control | T/C (dose: 400.0 mg/kg/injection, schedule: Q04DX003 (ip), vehicle: saline with Tween-80): 92 % of control

COc1ccc(NC(=O)Nc2cccc(O)c2)c(OC)c1
T/C (dose: 100.0 mg/kg/injection, schedule: Q01DX009 (ip), vehicle: Klucel (hydroxypropylcellulose) (HPC)): 100 % of control | T/C (dose: 200.0 mg/kg/injection, schedule: Q01DX009 (ip), vehicle: Klucel (hydroxypropylcellulose) (HPC)): 96 % of control | T/C (dose: 400.0 mg/kg/injection, schedule: Q01DX009 (ip), vehicle: Klucel (hydroxypropylcellulose) (HPC)): 100 % of control

COc1cc(OC)c(OCc2ccccc2)c(OC)c1
T/C [13]: 96 % of control | T/C [14]: 94 % of control | T/C [15]: 96 % of control

C[N+](C)(C)C1(Cc2ccc(Br)cc2)c2ccccc2-c2ccccc21
T/C (dose: 25.0 mg/kg/injection, schedule: Q04DX003 (ip), vehicle: saline with Tween-80): 88 % of control

CCCCS(=O)(=O)Nc1ccc(Nc2c3ccccc3nc3ccccc23)c(OC)c1
T/C [9]: 150 % of control | T/C [10]: 153 % of control | T/C (dose: 50.0 mg/kg/injection, schedule: Q01DX009 (ip), vehicle: Klucel (hydroxypropylcellulose) (HPC)): 154 % of control

CCCCC(CC)C(=O)[O][Ge]([CH2]CCC)([CH2]CCC)[O]C(=O)C(CC)CCCC (centres undefined)
T/C (dose: 100.0 mg/kg/injection, schedule: Q01DX001 (ip), vehicle: saline with Tween-80): 101 % of control | T/C (dose: 200.0 mg/kg/injection, schedule: Q01DX001 (ip), vehicle: saline with Tween-80): 100 % of control | T/C (dose: 400.0 mg/kg/injection, schedule: Q01DX001 (ip), vehicle: saline with Tween-80): 100 % of control

O=C(Nc1cccc(NC(=O)c2ccccc2)c1)c1ccccc1
T/C [6]: 92 % of control | T/C [7]: 95 % of control | T/C [8]: 90 % of control

COC(=O)C1(C)COP(=O)(N2CC2C)OC1 (centres undefined)
T/C [4]: 101 % of control | T/C [5]: 101 % of control | T/C [16]: 97 % of control

CCOC(=O)c1cccc2c([N+](=O)[O-])cccc12
T/C [4]: 94 % of control | T/C (dose: 100.0 mg/kg/injection, schedule: Q01DX009 (ip), vehicle: acetone): 96 % of control | T/C [5]: 98 % of control | T/C (dose: 200.0 mg/kg/injection, schedule: Q01DX009 (ip), vehicle: acetone): 88 % of control | T/C [16]: 98 % of control | T/C (dose: 400.0 mg/kg/injection, schedule: Q01DX009 (ip), vehicle: acetone): 97 % of control

CCOc1ccc(Br)cc1/C=C/C(C)=O
T/C [17]: 103 % of control | T/C [18]: 95 % of control | T/C [19]: 98 % of control | T/C [20]: 111 % of control | T/C [21]: 90 % of control | T/C [22]: 97 % of control

O=C(O)c1ccc(C(Cl)C(Cl)(Cl)Cl)cc1O (centres undefined)
T/C [13]: 92 % of control | T/C [14]: 94 % of control | T/C [15]: 96 % of control

CC(=O)CC(C)(C)N
T/C [11]: 94 % of control | T/C [12]: 86 % of control

CCCC(C(O)CC)[N+](=O)[O-] (centres undefined)
T/C [23]: 95 % of control | T/C [24]: 97 % of control | T/C [25]: 101 % of control

CCOP(=O)(Nc1cc2c(cc1Cl)-c1ccccc1C2=O)OCC
T/C [13]: 99 % of control | T/C [14]: 89 % of control | T/C [15]: 91 % of control

[NH-]CC([NH-])=O.[NH-]CC([NH-])=O.[Ni]
T/C (dose: 3.12 mg/kg/injection, schedule: Q01DX009 (ip), vehicle: water): 96 % of control | T/C (dose: 6.25 mg/kg/injection, schedule: Q01DX009 (ip), vehicle: water): 100 % of control | T/C (dose: 12.5 mg/kg/injection, schedule: Q01DX009 (ip), vehicle: water): 103 % of control

CC1CN1P(=S)(Oc1ccccc1)N1CC1C (centres undefined)
T/C (dose: 7.0 mg/kg/injection, schedule: Q01DX015 (ip), vehicle: carboxymethylcellulose (CMC)): 94 % of control | T/C (dose: 13.0 mg/kg/injection, schedule: Q01DX015 (ip), vehicle: carboxymethylcellulose (CMC)): 98 % of control | T/C (dose: 25.0 mg/kg/injection, schedule: Q01DX015 (ip), vehicle: carboxymethylcellulose (CMC)): 97 % of control | T/C (dose: 50.0 mg/kg/injection, schedule: Q01DX015 (ip), vehicle: carboxymethylcellulose (CMC)): 91 % of control | T/C [4]: 105 % of control | T/C (dose: 100.0 mg/kg/injection, schedule: Q01DX015 (ip), vehicle: carboxymethylcellulose (CMC)): 103 % of control | T/C [5]: 102 % of control | T/C (dose: 200.0 mg/kg/injection, schedule: Q01DX015 (ip), vehicle: saline): 95 % of control | T/C [16]: 100 % of control | T/C (dose: 400.0 mg/kg/injection, schedule: Q01DX015 (ip), vehicle: saline): 91 % of control | T/C (dose: 800.0 mg/kg/injection, schedule: Q01DX001 (ip), vehicle: saline): 95 % of control | T/C (dose: 1600.0 mg/kg/injection, schedule: Q01DX001 (ip), vehicle: saline): 103 % of control

C1=CC2CCC(C1)C21OCCO1 (centres undefined)
T/C [17]: 92 % of control | T/C (dose: 100.0 mg/kg/injection, schedule: Q04DX003 (ip), vehicle: alcohol): 108 % of control | T/C [19]: 96 % of control | T/C (dose: 200.0 mg/kg/injection, schedule: Q04DX003 (ip), vehicle: alcohol): 108 % of control | T/C [21]: 94 % of control | T/C (dose: 400.0 mg/kg/injection, schedule: Q04DX003 (ip), vehicle: alcohol): 97 % of control

NC1=NCN(c2ccc(Oc3ccc(S(=O)(=O)F)cc3)cc2)C(N)=N1
T/C [23]: 93 % of control | T/C [24]: 101 % of control | T/C [25]: 104 % of control

O=C(O)CO/N=C/c1ccccc1Cl
T/C [2]: 98 % of control | T/C [3]: 95 % of control

CCC(C)C(CN)(CCCCN1CCOCC1)c1cccc2ccccc12 (centres undefined)
T/C [11]: 98 % of control | T/C [12]: 93 % of control

CC(=O)C(=O)N1Cc2cc3ccccc3nc2C1
T/C [18]: 115 % of control | T/C [20]: 102 % of control | T/C [22]: 102 % of control

Cl/C=C\C[N+]12CN3CN(CN(C3)C1)C2
T/C (dose: 25.0 mg/kg/injection, schedule: Q04DX003 (ip), vehicle: saline): 100 % of control | T/C (dose: 50.0 mg/kg/injection, schedule: Q04DX003 (ip), vehicle: saline): 94 % of control
